In patent publication US10383831B2, “2,4,6-trialkoxystryl aryl sulfones, sulfonamides and carboxamides, and methods of preparation and use” (Temple University—Of The Commonwealth System Of Higher …, priority 2015, dated 2019):

Assays:
Format in all cases: cell-based
[1] = test system: K562 (chronic myelogenous leukaemia); experiment: Cytotoxicity assay, K562 tumor cells; conditions: Homo sapiens, 96 hours treatment
Method: (§1) The effect of the compounds of the invention on tumor cells was determined by the assay described by Latham et al., Oncogene 12:827-837 (1996). Tumor cells K562 (chronic myelogenous leukaemia) or DU145 (prostate cancer) were plated in 12-well dishes at a cell density of 2.5×10^4 cells well. The plated cells were treated 24 hours later with a compound of the invention dissolved in DMSO at multiple concentrations ranging from 0.001 to 10 μM. The plates were examined 96 hours later under an inverted microscope, Olympus CK-2 using a 10× objective, and compound activity was noted by physical observation. When necessary, the total number of viable cells was determined by trypsinizing the wells and counting the number of viable cells, as determined by trypan blue exclusion, using a hemacytometer.

DU145 (prostate cancer) = experiment: Cytotoxicity assay, DU145 tumor cells; conditions: Homo sapiens, DU-145, 96 hours treatment
Method: as §1

tumor cell lines = experiment: Cytotoxicity assay, comparison across the cell lines listed in Table 18; conditions: across a wide range of tumor cell lines
Method: (§2) Cells of the cell lines listed in Table 18 (1×10^5) were plated into 6-well dishes. Twenty-four hours later, the compound of Example 1, i.e., (Z)-ethyl 3-((2-methoxy-5-(((E)-2,4,6-trimethoxystyrylsulfonyl)methyl) phenyl)amino)acrylate, or the compound of Comparative Example 1, i.e., sodium (E)-2-(5-((2,4,6-trimethoxystyrylsulfonyl)methyl)-2-methoxyphenylamino) acetate (rigosertib) was added at different concentrations over a 4 log dilution (0.001 to 10 μM). The total number of viable cells was determined after 96 hours of continuous treatment by staining with trypan blue and counting the number of non-staining cells (viable) remaining in each well using a hemacytometer. The percentage of viable cells remaining was calculated as follows: # viable cells (compound treated)/# viable cells (DMSO treated)*100. The GI50 (the concentration of drug resulting in 50% net loss of growth inhibition) was determined.

DU145 = experiment: Cytotoxicity assay (viable cell count, trypan blue), DU145; conditions: DU145, Prostate; 96 hours continuous treatment
Method: as §2

DAUDI = experiment: Cytotoxicity assay (viable cell count, trypan blue), DAUDI; conditions: B-Cell Lymphoma, 96 hours continuous treatment
Method: as §2

Caov-3 = experiment: Cytotoxicity assay (viable cell count, trypan blue), Caov-3; conditions: Caov-3, Ovarian; 96 hours continuous treatment
Method: as §2

2008 = experiment: Cytotoxicity assay (viable cell count, trypan blue), 2008; conditions: 2008, Ovarian; 96 hours continuous treatment
Method: as §2

CEM = experiment: Cytotoxicity assay (viable cell count, trypan blue), CEM; conditions: T-Cell Lymphoma, 96 hours continuous treatment
Method: as §2

PC-3 = experiment: Cytotoxicity assay (viable cell count, trypan blue), PC-3; conditions: PC-3, Prostate; 96 hours continuous treatment
Method: as §2

MOLT-4 = experiment: Cytotoxicity assay (viable cell count, trypan blue), MOLT-4; conditions: MOLT-4, T-Cell Lymphoma; 96 hours continuous treatment
Method: as §2

T-24 = experiment: Cytotoxicity assay (viable cell count, trypan blue), T-24; conditions: T-24, Bladder; 96 hours continuous treatment
Method: as §2

GRANTA-519 = experiment: Cytotoxicity assay (viable cell count, trypan blue), GRANTA-519; conditions: GRANTA-519, Mantle Cell Lymphoma; 96 hours continuous treatment
Method: as §2

N417 = experiment: Cytotoxicity assay (viable cell count, trypan blue), N417; conditions: N417, Small Cell Lung Carcinoma; 96 hours continuous treatment
Method: as §2

5367 = experiment: Cytotoxicity assay (viable cell count, trypan blue), 5367; conditions: 5367, Bladder; 96 hours continuous treatment
Method: as §2

A549 = experiment: Cytotoxicity assay (viable cell count, trypan blue), A549; conditions: A549, Non-Small Cell Lung Carcinoma; 96 hours continuous treatment
Method: as §2

HCT-15 = experiment: Cytotoxicity assay (viable cell count, trypan blue), HCT-15; conditions: HCT-15, Colo-Rectal; 96 hours continuous treatment
Method: as §2

H1299 = experiment: Cytotoxicity assay (viable cell count, trypan blue), H1299; conditions: H1299, Non-Small Cell Lung Carcinoma; 96 hours continuous treatment
Method: as §2

HT-29 = experiment: Cytotoxicity assay (viable cell count, trypan blue), HT-29; conditions: HT-29, Colo-Rectal; 96 hours continuous treatment
Method: as §2

K562 = experiment: Cytotoxicity assay (viable cell count, trypan blue), K562; conditions: K562, Chronic Myelogenous Leukemia; 96 hours continuous treatment
Method: as §2

UM-UC-3 = experiment: Cytotoxicity assay (viable cell count, trypan blue), UM-UC-3; conditions: UM-UC-3, Bladder; 96 hours continuous treatment
Method: as §2

MIA-PaCa-2 = experiment: Cytotoxicity assay (viable cell count, trypan blue), MIA-PaCa-2; conditions: MIA-PaCa-2, Pancreatic; 96 hours continuous treatment
Method: as §2

WM1617 = experiment: Cytotoxicity assay (viable cell count, trypan blue), WM1617; conditions: WM1617, Melanoma; 96 hours continuous treatment
Method: as §2

HCT-116 = experiment: Cytotoxicity assay (viable cell count, trypan blue), HCT-116; conditions: HCT-116, Colo-Rectal; 96 hours continuous treatment
Method: as §2

MDA-MB-231 = experiment: Cytotoxicity assay (viable cell count, trypan blue), MDA-MB-231; conditions: MDA-MB-231, Breast; 96 hours continuous treatment
Method: as §2

Z1385 = experiment: Cytotoxicity assay (viable cell count, trypan blue), Z1385; conditions: Z1385, Mantle Cell Lymphoma; 96 hours continuous treatment
Method: as §2

RS4; 11 = experiment: Cytotoxicity assay (viable cell count, trypan blue), RS4; 11; conditions: 11, ALL-B-Cell Precursor, 96 hours continuous treatment
Method: as §2

CCOC(=O)/C=C/CNc1cc(CS(=O)(=O)/C=C/c2c(OC)cc(OC)cc2OC)ccc1OC [Ex. 181, (E)-Ethyl 4-((2-methoxy-5-(((E)-2,4,6-trimethoxystyrylsulfonyl)methyl)phenyl)amino)but-2-enoate]
IC50 [1]: 0.25 µM
IC50 (DU145 (prostate cancer)): 0.25 µM

COc1cc(OC)c(/C=C/S(=O)(=O)Cc2ccc(OC)c(NC(=O)/C=C/C(=O)O)c2)c(OC)c1 [Ex. 186, (E)-4-((2-methoxy-5-(((E)-2,4,6-trimethoxystyrylsulfonyl)methyl)phenyl)amino)-4-oxobut-2-enoic acid]
IC50 [1]: 2 µM
IC50 (DU145 (prostate cancer)): 2 µM

COc1ccc(C(=O)/C=C\Nc2cc(CS(=O)(=O)/C=C/c3c(OC)cc(OC)cc3OC)ccc2OC)cc1 [Ex. 4, (Z)-1-(4-methoxyphenyl)-3-((2-methoxy-5-(((E)-2,4,6-trimethoxystyrylsulfonyl)methyl)phenyl)amino)prop-2-en-1-one]
IC50 [1]: 0.05 µM
IC50 (DU145 (prostate cancer)): 0.05 µM

COc1cc(OC)c(/C=C/S(=O)(=O)Cc2ccc(OC)c(N/C=C\C(=O)c3cc(OC)c(OC)c(OC)c3Cl)c2)c(OC)c1 [Ex. 7, (Z)-1-(2-chloro-3,4,5-trimethoxyphenyl)-3-((2-methoxy-5-(((E)-2,4,6-trimethoxystyrylsulfonyl)methyl)phenyl)amino)prop-2-en-1-one]
IC50 [1]: 0.05 µM
IC50 (DU145 (prostate cancer)): 0.05 µM

COc1cc(OC)c(/C=C/S(=O)(=O)Cc2ccc(OC)c(N/C=C\C(=O)c3cc(OC)c(OC)c(OC)c3)c2)c(OC)c1 [Ex. 5, (Z)-1-(3,4,5-trimethoxyphenyl)-3-((2-methoxy-5-(((E)-2,4,6-trimethoxystyrylsulfonyl)methyl)phenyl)amino) prop-2-en-1-one]
IC50 (DU145 (prostate cancer)): 0.009 µM

COc1cc(OC)c(/C=C/S(=O)(=O)Cc2ccc(OC)c(NC(=O)/C=C\C(=O)O)c2)c(OC)c1 [Ex. 171, (Z)-4-((2-methoxy-5-(((E)-2,4,6-trimethoxystyrylsulfonyl)methyl)phenyl)amino)-4-oxobut-2-enoic acid]
IC50 [1]: 2 µM
IC50 (DU145 (prostate cancer)): 2 µM

CCOC(=O)/C=C\Nc1cc(CS(=O)(=O)/C=C/c2c(OC)cc(OC)cc2OC)ccc1OC [(Z)-ethyl 3-((2-methoxy-5-(((E)-2,4,6-trimethoxystyrylsulfonyl)methyl)phenyl)amino)acrylate]
fold more cytotoxic than Rigosertib (tumor cell lines): 10-100 fold

COc1cc(OC)c(/C=C/S(=O)(=O)Cc2ccc(OC)c(NCC(=O)O)c2)c(OC)c1 [Comparative Example 1, Sodium (E)-2-(5-((2,4,6-trimethoxystyrylsulfonyl)methyl)-2-methoxyphenylamino) acetate, reference compound]
GI50 (DU145): 150 nM
GI50 (DAUDI): 75 nM
GI50 (Caov-3): 150 nM
GI50 2008: 100 nM
GI50 (CEM): 40 nM
GI50 (PC-3): 75 nM
GI50 (MOLT-4): 40 nM
GI50 (T-24): 70 nM
GI50 (GRANTA-519): 40 nM
GI50 (N417): 100 nM
GI50 5367: 100 nM
GI50 (A549): 75 nM
GI50 (HCT-15): 200 nM
GI50 (H1299): 200 nM
GI50 (HT-29): 250 nM
GI50 (K562): 120 nM
GI50 (UM-UC-3): 50 nM
GI50 (MIA-PaCa-2): 150 nM
GI50 (WM1617): 300 nM
GI50 (HCT-116): 100 nM
GI50 (MDA-MB-231): 90 nM
GI50 (Z1385): 40 nM
GI50 (RS4; 11): 75 nM

COC(=O)/C=C\C(=O)Nc1cc(CS(=O)(=O)/C=C/c2c(OC)cc(OC)cc2OC)ccc1OC [Ex. 176, (Z)-methyl 4-((2-methoxy-5-(((E)-2,4,6-trimethoxystyrylsulfonyl)methyl)phenyl)amino)-4-oxobut-2-enoate]
IC50 [1]: 0.25 µM
IC50 (DU145 (prostate cancer)): 2 µM

C=CC(=O)Nc1cc(CS(=O)(=O)/C=C/c2c(OC)cc(OC)cc2OC)ccc1OC [Ex. 201, (E)-N-(2-methoxy-5-(((2,4,6-trimethoxystyryl)sulfonyl)methyl)phenyl)acrylamide]
IC50 [1]: 0.75 µM
IC50 (DU145 (prostate cancer)): 0.75 µM

CCOC(=O)C(=CNc1cc(CS(=O)(=O)/C=C/c2c(OC)cc(OC)cc2OC)ccc1OC)C(=O)OCC [Ex. 191, (E)-diethyl-2-(((2-methoxy-5-(((2,4,6-trimethoxystyryl)sulfonyl)methyl)phenyl)-amino)methylene)malonate]
IC50 [1]: 2 µM
IC50 (DU145 (prostate cancer)): 2 µM

COc1cc(OC)c(/C=C/S(=O)(=O)Cc2ccc(OC)c(N/C=C\C(C)=O)c2)c(OC)c1 [Ex. 2, (Z)-4-((2-Methoxy-5-(((E)-2,4,6-trimethoxystyrylsulfonyl)methyl)phenyl)amino)but-3-en-2-one]
IC50 [1]: 0.1 µM
IC50 (DU145 (prostate cancer)): 0.1 µM

C#CCN(CC#C)c1cc(CS(=O)(=O)/C=C/c2c(OC)cc(OC)cc2OC)ccc1OC [Ex. 161, (E)-2-methoxy-N,N-di(prop-2-yn-1-yl)-5-(((2,4,6-trimethoxystyryl)sulfonyl)-methyl)aniline]
IC50 [1]: 2.5 µM
IC50 (DU145 (prostate cancer)): 2.5 µM

COc1cc(OC)c(/C=C/S(=O)(=O)Cc2ccc(OC)c(N/C=C\C(=O)c3cc(OC)c(OC)c(OC)c3Br)c2)c(OC)c1 [Ex. 8, (Z)-1-(2-bromo-3,4,5-trimethoxyphenyl)-3-((2-methoxy-5-(((E)-2,4,6-trimethoxystyrylsulfonyl)methyl)phenyl)amino)prop-2-en-1-one]
IC50 [1]: 0.075 µM
IC50 (DU145 (prostate cancer)): 0.075 µM

COC(=O)/C=C\Nc1cc(CS(=O)(=O)/C=C/c2c(OC)cc(OC)cc2OC)ccc1OC [Ex. 3, (Z)-methyl 3-((2-methoxy-5-(((E)-2,4,6-trimethoxystyrylsulfonyl)methyl)phenyl)amino) acrylate]
IC50 [1]: 0.004 µM
IC50 (DU145 (prostate cancer)): 0.004 µM
